Assay results from patent US9000175B2, “Bicyclic GPR119 modulators” (Lupin Limited, priority 2010, dated 2015).

Experiments:
[1] = target: T1, human GPR119 (Homo sapiens, UniProt Q8TDV5); test: Cyclic AMP assay in stable cell line; assay type: cell-based; conditions: CHO-K1 cells stably transfected with human GPR119; cAMP levels (FRET, cAMP femto kit); 1 h at 37° C; read-out: EC50 Range
T1 construct: expressed in transfected cells
T1 sequence (Q8TDV5 1-335): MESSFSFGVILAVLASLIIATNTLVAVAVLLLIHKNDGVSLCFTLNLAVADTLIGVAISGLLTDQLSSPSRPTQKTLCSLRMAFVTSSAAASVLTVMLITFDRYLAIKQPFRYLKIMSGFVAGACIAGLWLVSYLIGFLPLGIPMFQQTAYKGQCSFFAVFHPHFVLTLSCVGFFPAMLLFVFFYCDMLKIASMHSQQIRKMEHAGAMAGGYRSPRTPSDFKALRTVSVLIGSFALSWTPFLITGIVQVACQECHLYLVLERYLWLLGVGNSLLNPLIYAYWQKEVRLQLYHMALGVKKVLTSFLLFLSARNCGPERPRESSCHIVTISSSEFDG
Outline: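 Human GPR119 stably expressed in CHO-K1 cells, serum-starved 18-24 h, then exposed to compounds in serum-free Ham's F12 for 1 h at 37° C. cAMP measured by HTRF competition (665/620 nm ratio) against a cAMP standard curve; EC50 for half-maximal stimulation.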

[2] = tested on: C57 BL/6J mice; test: Oral glucose tolerance test; assay type: in vivo; conditions: male C57 BL/6J mice fasted 16 h, 10 mg/kg oral gavage 30 min before glucose bolus 3 g/kg, 20-120 min; for % reduction in delta AUC at 10 mg/kg: blood glucose delta AUC; for % reduction in total AUC at 10 mg/kg: blood glucose total AUC
Protocol: Oral Glucose Tolerance Test:
9-10 weeks old male C57 BL/6J mice were maintained on a regular chow diet. The day of the experiment mice were fasted for 16 h and then randomized in to groups (n=7-8) based on blood glucose and bodyweight to receive vehicle (80% PEG400, 10% Tween80, 10% Ethanol) or test compounds (at 10 mg/kg). Vehicle or test compounds were delivered via oral gavage at 10 ml/kg volume. Thirty minutes later, the mice were dosed orally with a glucose bolus (3 g/kg) at 10 ml/kg volume. Blood glucose measurements were taken at 20, 40, 60 and 120 minutes after glucose administration by glucometer (CONTOUR TS, Bayer). Total AUC and Delta AUC were calculated by using graph pad prism (5.0).

Row | EC50 [1] | SMILES | % reduction in delta AUC at 10 mg/kg [2] | % reduction in total AUC at 10 mg/kg [2]
1 | < 0.05 µM | CCc1cnc(N2CCC(Oc3ccc(-n4ccc5cc(C(=O)NC)ccc54)nc3)CC2)nc1 [Example-63, 1-(5-((1-(5-Ethylpyrimidin-2-yl)piperidin-4-yl)oxy)pyridin-2-yl)-N-methyl-1H-indole-5-carboxamide] | 28% | 19%
2 | – | CCOC(=O)Nc1ccc2c(ccn2-c2ccc(OC3CCN(c4nc(CC)no4)CC3)cn2)c1 [Example-142, Ethyl(1-(5-((1-(3-ethyl-1,2,4-oxadiazol-5-yl)piperidin-4-yl)oxy)pyridin-2-yl)-1H-indol-5-yl)carbamate] | 35% | 20%
